Results on three compounds are retold here after patent publication US20010012854A1, “MULTICATALYTIC PROTEASE INHIBITORS FOR USE AS ANTI-TUMOR AGENTS” (priority 1997, published 2001).

In experiment [1] the test system is murine melanoma cell line, B16-F0. Kind of experiment: In vivo B16-F0 melanoma tumor growth in C57BL mice. As to conditions: 10 mg/kg/day, ip. The protocol: a. Materials: MCP inhibitors used for in vivo studies (Compounds D and E) were each formulated in 25% Solutol.
b. Cell line: The murine melanoma cell line, B16-F0, was grown at 37° C. in a humidified incubator, with a 95% air/5% CO2 atmosphere, in Dulbecco's modified Eagle's medium with 4.5 g/l glucose (Cellgro/Mediatech, Washington, D.C.) containing 10% fetal bovine serum (Hyclone Labs, Logan, Utah), 2 mM glutamine (GibcoBRL, Long Island, N.Y.), penicillin (100 I.U./mL) (GibcoBRL), and streptomycin (100 μg/mL) (GibcoBRL). The cells were determined to be free of mycoplasma and rodent viruses (MAP testing). Exponentially growing cells were harvested using 5 mL of warm trypsin/EDTA (0.05%, 0.5 mM)((GibcoBRL). The total volume was brought up to 10 mL with Complete Medium to neutralize trypsin and cells were counted with a hemocytometer. The cells were then collected by brief centrifugation and the cell pellet was resuspended in Phosphate Buffered Saline (GibcoBRL) to achieve the final concentration of 1×10^7 live cells/ml.
c. Animals: Female C57BL mice (20-25 g) obtained from Harlan Sprague Dawley, Indianapolis, Ind. were maintained five mice/cage and given a commercial diet and water ad libitum. […]
e. Tumor measurements: Tumors were measured using a vernier caliper every 2 to 3 days. Tumor volume was calculated using the formula: […]

Experiment [2] deals with Jurkat Human T Cell Leukemia Line. Kind of experiment: Jurkat cell viability assay (XTT reduction). In kind it is cell-based. As to conditions: Jurkat cells, 24 hours, viability by XTT reduction, read-out: Toxicity (IC50). The protocol: f. Cell viability assay. Jurkat cells were treated with MCP inhibitors or vehicle for 30 min. at 37° C. Next, ionomycin (1 μM) and the phorbol ester PMA (10 ng/ml) were added, together with 0.2% ethanol. After 24 h, cell viability was assessed by reduction of XTT (Sigma, X4251). To each well, 50 μl of XTT (1 mg/ml) and 25 μl PMS (Sigma 9625, 5 mM) were added. After 3 h at 37° C., the OD of each well was read at 450 nm/690 nm by a plate reader.
(§1) The rank-order potency for Jurkat cell killing precisely matched the order for MCP inhibition (Table 2, below).

For experiment [3], the target named is MCP chymotrypsin-like activity (Homo sapiens, UniProt P28074). Briefly: Inhibition of MCP chymotrypsin-like activity. The format is biochemical.
Text: as §1
Inhibition of the chymotrypsin-like activity of MCP by the disclosed MCP inhibitors has been reported, but these MCP inhibitors produced relatively little inhibition on the MCP trypsin-like activity and cathepsin B, a vacuolar cysteine protease (Iqbal, M., et al. J. Med Chem. 38: 2276-2277, 1995; Iqbal, M., et al. Bioorg. Med. Chem. Lett. 6: 287-290, 1996; and Harding, C. V., et al. J. Immuno. 155: 1767-1775, 1995). Furthermore, the order of potency for inhibition of the chymotrypsin-like activity was reported to be Compound A>Compound B>Compound C by using both isolated MCP and intact murine B cells (Iqbal, M., et al. J. Med Chem. 38: 2276-2277, 1995; Iqbal, M., et al. Bioorg. Med. Chem. Lett. 6: 287-290, 1996; and Harding, C. V., et al. J. Immuno. 155: 1767-1775, 1995).

For experiment [4], the system named is DU145 prostatic carcinoma. Kind of experiment: Calcein-AM viability assay, DU-145. The format is cell-based. The note with it: Homo sapiens. The protocol: (§2) Cells were initially seeded in 96-well plates at varying density, then assayed using the Calcein-AM viability assay after 24 hours to determine the optimal final density for each cell type. Cells were then seeded in 96-well plates at this density in 100 μL of the proper cell media as follows:
(§3) Serial dilutions of the compounds were made so that concentrations were twice the desired concentration to be evaluated. When 100 μL of the dilution was then added to the cells plated in 100 μL of media, a final concentration of 0, 11.7, 46.9, 187.5, 375 and 750 nM was obtained. Compounds were added to the plates three to four hours after seeding the cells, then the plates were incubated at 37° C. for the desired time point (generally one, two, or three day incubations).
(§4) Calcein-AM viability assays were conducted at the desired time points as follows. Media were aspirated using a manifold and metal plate to leave approximately 50 μL/well. The wells were then washed three times with 200 μL DPBS (Gibco), aspirating each time with the manifold to leave 50 μL/well. A 8 μM solution of Calcein-AM (Molecular Probes) in DPBS was prepared and 150 μL was added to each well. The plates were then incubated at 37° C. for 30 minutes. […] After the final aspiration, fluorescence was measured using a Cytofluor 2300 fluorescence plate reader. […]

Experiment [5] deals with MCF-7 breast carcinoma. Briefly: Calcein-AM viability assay, MCF-7. In kind it is cell-based. The note with it: Homo sapiens, MCF7. The protocol: as §2, §3, §4
Experiment [6] relates to Lewis lung (murine) lung carcinoma. Briefly: Calcein-AM viability assay, Lewis Lung. In kind it is cell-based. The note with it: Mus musculus. The protocol: as §2, §3, §4
The subject of experiment [7] is OVCAR-3 ovarian carcinoma. Kind of experiment: Calcein-AM viability assay, OVCAR-3. In kind it is cell-based. The note with it: Homo sapiens. The protocol:
as §2, §3, §4

The subject of experiment [8] is Lewis Lung carcinoma xenografts. Briefly: In vivo growth of Lewis Lung carcinoma xenografts in athymic nude mice. On the set-up: species or system murine. The note with it: 3 mg/kg, s.c., QD, 5 days a week, 12 days. The protocol: Female athymic nude mice were injected s.c. with 1×10^6 Lewis Lung carcinoma cells into the right rear flank. Upon tumors achieving 150 to 200 mm^3 in volume, mice were randomized into groups of ten animals each and dosing commenced with Compound I (2 mg/kg, s.c., QD, 5 days a week), Compound J (3 mg/kg, s.c., QD, 5 days a week), or vehicle alone (30% Solutol) for a total of 12 days. Tumor measurements (volume) were determined with vernier calipers in two dimensions every two to three days. Statistical analyses of drug-associated anti-tumor efficacy relative to vehicle-treated controls were conducted using the Mann-Whitney Rank sum test.

Experiment [9] relates to SKMEL-5 melanoma. Kind of experiment: Calcein-AM viability assay, SKMEL-5. The format is cell-based. The note with it: Homo sapiens, SK-MEL-5. The protocol:
as §2, §3, §4

For experiment [10], the system named is AT-2 (rat) prostatic carcinoma. Briefly: Calcein-AM viability assay, AT-2. The format is cell-based. The protocol: as §2, §3, §4
Experiment [11] has as its system PANC-1 pancreatic carcinoma. Briefly: Calcein-AM viability assay, PANC-1. As to conditions: Homo sapiens. The format is cell-based. The protocol:
as §2, §3, §4

Structures are written as SMILES.

With `CC(C)C[C@H](NC(=O)[C@H](CCCN/C(N)=N/[N+](=O)[O-])NC(=O)C(CCCCCCCCN1C(=O)c2ccccc2C1=O)C1CCCC1)B(O)O` (stereo partly shown) [E], in [1], the “Melanoma tumor growth (tumor volume)” value was “inhibit melanoma tumor growth”.

Take `CC(C)C[C@H](NC(=O)[C@H](CCCNC(N)=N[N+](=O)[O-])NC(=O)C(CCCCCCCCC#N)C1CCCC1)B(O)O` (stereo partly shown) [D]: the figures for the IC50 in experiment [2] and in experiment [3] were 600 nM and 5 nM, respectively. Moreover, the “Melanoma tumor growth (tumor volume)” value in experiment [1] was “inhibit melanoma tumor growth”.

For the compound `CC(C)C[C@@H](NC(=O)[C@H](CCCN/C(N)=N/[N+](=O)[O-])NC(=O)C(CCCCCCCCN1C(=O)c2ccccc2C1=O)C1CCCC1)B1O[C@H]2CC3CC(C3(C)C)C2(C)O1` (stereo partly shown) [Compound J], the IC50 is 385 nM in experiment [4] (DU-145, 24 h); 167 nM in experiment [4] (DU-145, 72 h); greater than 1000 nM in experiment [5] (MCF-7, 24 h); 289 nM in [5] (MCF-7, 72 h); 411 nM in experiment [6] (24 h); 505 nM in experiment [6] (72 h). In addition, the IC50 is greater than 1000 nM in [7] (OVCAR-3, 24 h); 29 nM in [7] (OVCAR-3, 72 h); 427 nM in [9] (SKMEL-5, 24 h); 82 nM in experiment [9] (SKMEL-5, 72 h); greater than 1000 nM in experiment [10] (AT-2, 24 h); greater than 1000 nM in experiment [10] (AT-2, 72 h). The IC50 in experiment [11] (PANC-1, 24 h) is greater than 1000 nM; in experiment [11] (PANC-1, 72 h), 185 nM. For the same compound, the “Lung carcinoma tumor growth (tumor volume)” value in [8] was “inhibit lung carcinoma tumor growth”.
